Patent publication US10647675B2 (priority 2015, dated 2020)
≈ marks a conversion by molar mass, not a printed value.

What was measured:
[1] = system: Trichophyton mentagrophytes SM-110; assay: Antifungal activity evaluation test: minimum inhibitory concentration (MIC), broth dilution by reference to CLSI M38-A2; assay type: cell-based; details: SM110, read-out: MIC (T. menta.)
Procedure, shortened: (§1)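 MIC read visually as lowest concentration inhibiting growth by at least 80% relative to control after 4 days at 35° C. Trichophyton strains inoculated at 2×10^3 cells/mL final in MOPS-buffered RPMI 1640 (pH 7.0); compounds as 2-fold DMSO series, CLSI M38-A2 basis.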

[2] = system: Trichophyton rubrum KD-1130; assay: as above; assay type: cell-based; details: KD1130, read-out: MIC (T. rubrum)
Procedure, shortened: as §1

Row | MIC [1] [µg/mL] | MIC [2] [µg/mL] | SMILES
1 | ≤ 0.1 | ≤ 0.1 | COc1ccc(F)cc1-c1cccnc1Oc1cnc(C(F)F)c(C)c1 [I-122, 2-(difluoromethyl)-5-{[3-(5-fluoro-2-methoxyphenyl)pyridin-2-yl]oxy}-3-methylpyridine]
2 | ≤ 0.1 | ≤ 0.1 | COc1ncccc1-c1cccnc1Oc1ccc(C)cc1 [I-459]
3 | 1.56 to 6.25 (≈ 4.88 to 19.6 µM) | 1.56 to 6.25 (≈ 4.88 to 19.6 µM) | COc1ccncc1-c1cccnc1Oc1ccc(C2CC2)nc1 [I-133, 2-[(6-cyclopropylpyridin-3-yl)oxy]-4′-methoxy-3,3′-bipyridine]
4 | ≤ 0.1 | ≤ 0.1 | FC(F)c1ccc(Oc2ncncc2-c2cccc3ccnn23)cc1 [I-358, 7-{4-[4-(difluoromethyl)phenoxy]pyrimidin-5-yl)pyrazolo[1,5-a]-pyridine]
5 | ≤ 0.1 | ≤ 0.1 | COc1ccccc1-c1cccnc1Oc1ccc(OCCc2ccccc2)nc1 [I-173, 3-(2-methoxyphenyl)-2-[(6-phenethoxypyridin-3-yl)oxy]pyridine]
6 | 0.2 to 0.78 (≈ 0.503 to 1.96 µM) | ≤ 0.1 | COc1ccccc1-c1cccnc1Oc1cnc(C(F)(F)C(F)(F)F)nc1 [I-181, 5-{[3-(2-methoxyphenyl)pyridin-2-yl]oxy}-2-(pentafluoroethyl)pyrimidine]
7 | ≤ 0.1 | ≤ 0.1 | Fc1cncc(-c2cccnc2Oc2ccc(C(F)(F)F)cc2)c1Cl [I-207, 4′-chloro-5′-fluoro-2-[4-(trifluoromethyl)phenoxy]-3,3′-bipyridine]
8 | 0.2 to 0.78 (≈ 0.566 to 2.21 µM) | 0.2 to 0.78 (≈ 0.566 to 2.21 µM) | CC(F)(F)c1ccc(Oc2ncccc2-c2cccc3ncoc23)cn1 [I-114, 7-(2-{[6-(1,1-difluoroethyl)pyridin-3-yl]oxy}pyridin-3-yl)benzo[d]oxazole]
9 | 0.2 to 0.78 (≈ 0.501 to 1.95 µM) | 0.2 to 0.78 (≈ 0.501 to 1.95 µM) | CCOC(=O)COc1ncc(Oc2ncccc2-c2ccc(F)cc2OC)cn1 [I-196, ethyl 2-[(5-{[3-(4-fluoro-2-methoxyphenyl)pyridin-2-yl]oxy}-pyrimidin-2-yl)oxy]acetate]
10 | 1.56 to 6.25 (≈ 4.11 to 16.5 µM) | 1.56 to 6.25 (≈ 4.11 to 16.5 µM) | CC(F)(F)c1ccc(Oc2ncccc2-c2cccnc2-n2cccn2)cn1 [I-107, 2-{[6-(1,1-difluoroethyl)pyridin-3-yl]oxy}-2′-(1H-pyrazol-1-yl)-3,3′-bipyridine]
11 | 0.2 to 0.78 (≈ 0.506 to 1.97 µM) | ≤ 0.1 | FC(F)(F)c1ccc(Oc2ncccc2-c2ccccc2Br)cn1 [I-5, 3-(2-bromophenyl)-2-{[6-(trifluoromethyl)pyridin-3-yl]oxy}pyridine]
12 | ≤ 0.1 | ≤ 0.1 | COCCN(C)c1ncc(Oc2ncccc2-c2ccc(F)cc2OC)cn1 [I-188, 5-{[3-(4-fluoro-2-methoxyphenyl)pyridin-2-yl]oxy}-N-(2-methoxyethyl)-N-methylpyrimidin-2-amine]
13 | 0.2 to 0.78 (≈ 0.569 to 2.22 µM) | 0.2 to 0.78 (≈ 0.569 to 2.22 µM) | Cc1noc(-c2cccnc2Oc2ccc(C(C)(F)F)nc2)c1Cl [I-104, 4-chloro-5-(2-{[6-(1,1-difluoroethyl)pyridin-3-yl]oxy}pyridin-3-yl)-3-methylisoxazole]
14 | ≤ 0.1 | ≤ 0.1 | CCOC(=O)c1ccc(Oc2ncccc2-c2cnccc2OC)cc1 [I-245]
15 | ≤ 0.1 | ≤ 0.1 | COc1ccnc(OC)c1-c1cccnc1Oc1ccc(C(F)(F)F)cc1 [I-203, 2,4-dimethoxy-2′-[4-(trifluoromethyl)phenoxy]-3,3′-bipyridine]
16 | ≤ 0.1 | ≤ 0.1 | COc1cc(F)ccc1-c1cccnc1Oc1cnc(C(F)(F)F)nc1 [I-179, 5-{[3-(4-fluoro-2-methoxyphenyl)pyridin-2-yl]oxy}-2-(trifluoromethyl)pyrimidine]
17 | 0.2 to 0.78 (≈ 0.547 to 2.13 µM) | 0.2 to 0.78 (≈ 0.547 to 2.13 µM) | CC(F)(F)c1ccc(Oc2ncccc2-c2cncc3nccnc23)cn1 [I-111, 8-(2-{[6-(1,1-difluoroethyl)pyridin-3-yl]oxy}pyridin-3-yl)pyrido[3,4-b]pyrazine]

Row | MIC [1] [µg/mL] | MIC [2] [µg/mL] | SMILES
18 | ≤ 0.1 | ≤ 0.1 | COc1c(F)cncc1-c1cccnc1Oc1ccc(C(C)(F)F)cc1 [I-301, 2-[4-(1,1-difluoroethyl)-phenoxy]-5′-fluoro-4′-methoxy-3,3′-bipyridine]
19 | ≤ 0.1 | ≤ 0.1 | CCOCCc1ccc(Oc2ncccc2-c2cccc3ccnn23)cc1 [I-412, 7-{2-[4-(2-ethoxyethyl)phenoxy]pyridin-3-yl}pyrazolo[1,5-a]pyridine]
20 | ≤ 0.1 | ≤ 0.1 | FC(F)(F)c1ccc(Oc2ncccc2-c2cccc3c2OCCC3)cn1 [I-38, 3-(chroman-8-yl)-2-{[6-(trifluoromethyl)pyridin-3-yl]oxy}pyridine]
21 | ≤ 0.1 | ≤ 0.1 | CCc1ccc(Oc2ncccc2-c2cncc(Cl)c2OC)cc1 [I-284, 5′-chloro-2-(4-ethylphenoxy)-4′-methoxy-3,3′-bipyridine]
22 | ≤ 0.1 | ≤ 0.1 | FC(F)(F)c1ccc(Oc2ncccc2-c2cccc3ccnn23)cn1 [I-44, 7-(2-{[6-(trifluoromethyl)pyridin-3-yl]oxy}pyridin-3-yl)-pyrazolo[1,5-a]pryidine]
23 | ≤ 0.1 | ≤ 0.1 | COc1c(Cl)cncc1-c1cccnc1Oc1ccc(C(C)(F)F)cc1 [I-300]
24 | ≤ 0.1 | ≤ 0.1 | COc1cc(F)ccc1-c1cccnc1Oc1cnc(Br)c(C)c1 [I-454]
25 | 0.2 to 0.78 (≈ 0.534 to 2.08 µM) | 0.2 to 0.78 (≈ 0.534 to 2.08 µM) | COCC(F)(F)c1ccc(Oc2ncncc2-c2cccnc2OC)cn1 [I-361, 4-{[6-(1,1-difluoro-2-methoxyethyl)pyridin-3-yl]oxy}-5-(2-methoxypyridin-3-yl)pyrimidine]
26 | ≤ 0.1 | ≤ 0.1 | Cc1ccncc1-c1cccnc1Oc1ccc(C(F)(F)CF)cc1 [I-306]
27 | ≤ 0.1 | ≤ 0.1 | FC(F)(F)c1ccc(Oc2ncccc2-c2cccc3nccnc23)cc1 [I-224, 5-{2-[4-(trifluoromethyl)phenoxy]pyridin-3-yl}quinoxaline]
28 | ≤ 0.1 | ≤ 0.1 | COc1ccccc1-c1cccnc1Oc1ccc(C2CC2)nc1 [I-128, 2-[(6-cyclopropylpyridin-3-yl)oxy]-3-(2-methoxyphenyl)pyridine]
29 | ≤ 0.1 | ≤ 0.1 | COc1ncccc1-c1cccnc1Oc1ccc(C(F)(F)F)nc1 [I-26, 2-methoxy-2′-{[6-(trifluoromethyl)pyridin-3-yl]oxy}-3,3′-bipyridine]
30 | ≤ 0.1 | ≤ 0.1 | FC(F)(F)c1ccc(Oc2ncncc2-c2cccc3c2OCC3)cn1 [I-327, 5-(2,3-dihydrobenzofuran-7-yl)-4-{[6-(trifluoromethyl)pyridin-3-yl]oxy}pyrimidine]
31 | 1.56 to 6.25 (≈ 5.09 to 20.4 µM) | 1.56 to 6.25 (≈ 5.09 to 20.4 µM) | COc1ccccc1-c1cccnc1Oc1ccc(C=O)nc1 [I-71, 5-{[3-(2-methoxyphenyl)pyridin-2-yl]oxy}picolinaldehyde]
32 | ≤ 0.1 | ≤ 0.1 | CCOCC(F)(F)c1ccc(Oc2ncccc2-c2ccc(F)cc2OC)cn1 [I-155, 2-{[6-(2-ethoxy-1,1-difluoroethyl)pyridin-3-yl]oxy}-3-(4-fluoro-2-methoxyphenyl)pyridine]
33 | ≤ 0.1 | ≤ 0.1 | COc1ccc(F)cc1-c1cncnc1Oc1ccc(C(C)(F)F)nc1 [I-360, 4-{[6-(1,1-difluoroethyl)pyridin-3-yl]oxy}-5-(5-fluoro-2-methoxyphenyl)pyrimidine]
34 | 0.2 to 0.78 (≈ 0.484 to 1.89 µM) | 0.2 to 0.78 (≈ 0.484 to 1.89 µM) | COc1ccccc1-c1cccnc1Oc1ccc(C(F)(F)CN(C)C(C)=O)nc1 [I-151, N-[2,2-difluoro-2-(5-{[3-(2-methoxyphenyl)pyridin-2-yl]oxy}-2-yl)-ethyl]-N-methylacetamide]
